# Measurements reported in paper PMC5480290 (Journal of the American Chemical Society, 2016).
# Tests used:
# LBT-PglBCj-Δ1-11 = LBT-PglBCj-Δ1-11 (Campylobacter jejuni subsp. jejuni serotype O:2, UniProt Q0P9C8); format: binding
# LBT-PglBCl-Δ1-12 [1] = target: T1, LBT-PglBCl-Δ1-12 (Campylobacter lari, UniProt B9KDD4); format: binding; details: Tb^3+ relative to LBT-PglB
# LBT-PglBCl-Δ1-12 [2] = target: T1, LBT-PglBCl-Δ1-12; format: binding; details: read-out: KD (glycan substrate); LRET titration, UndPPT-Fl from 0.014 to 5 μM, luminescence at 544 nm
# PglBCj = format: biochemical, Campylobacter jejuni
Molecule,Tb^3+ saturation stoichiometry (LBT-PglBCj-Δ1-11; Tb^3+ relative to LBT-PglB),"Kd (LBT-PglBCj-Δ1-11; read-out: Tb^3+ KD, estimated, sensitized luminescence at 544 nm) [nM]",Tb^3+ saturation stoichiometry (LBT-PglBCl-Δ1-12 [1]),Kd (LBT-PglBCl-Δ1-12 [2]) [nM],tolerated as glycosyl donor substrate (PglBCj)
"[Tb+3] [Tb^3+, terbium]",saturated at one molar equivalent,2300,saturated at one molar equivalent,,
Und-PP-diNAcBac-GalNAc-GalNAz conjugated to acetylene-545 fluorophore [UndPPT-Fl],,,,330 ± 70,tolerates
